# Source: article PMC9569420 (Communications Biology, 2022)
# Tests used:
# [1] = target: T1, AMPK (A1/B2/G3) (Homo sapiens, UniProt Q13131); assay: HotSpot kinase assay; type: biochemical; conditions: 10µM; read-out: % Enzyme Activity (relative to DMSO controls)
# T1 construct: purchased Reaction Biology Corporation
# Experimental: (§1) Kinase activity were performed by Reaction Biology Corporation using the “HotSpot” assay platform modified from the published procedure.
# [2] = target: T2, AMPK (A2/B1/G3) (Homo sapiens, UniProt P54646); assay: HotSpot kinase assay; type: biochemical; conditions: 10µM; read-out: % Enzyme Activity (relative to DMSO controls)
# T2 construct: purchased Reaction Biology Corporation
# Experimental: as §1
# [3] = target: T3, AMPK(A1/B1/G2) (Homo sapiens, UniProt Q13131); assay: HotSpot kinase assay; type: biochemical; conditions: 10µM; read-out: % Enzyme Activity (relative to DMSO controls)
# T3 construct: purchased Reaction Biology Corporation
# Experimental: as §1
# [4] = target: T4, AMPK(A1/B2/G1) (Homo sapiens, UniProt Q13131); assay: HotSpot kinase assay; type: biochemical; conditions: 10µM; read-out: % Enzyme Activity (relative to DMSO controls)
# T4 construct: purchased Reaction Biology Corporation
# Experimental: as §1
# [5] = target: T5, AMPK(A2/B2/G2) (Homo sapiens, UniProt P54646); assay: HotSpot kinase assay; type: biochemical; conditions: 10µM; read-out: % Enzyme Activity (relative to DMSO controls)
# T5 construct: purchased Reaction Biology Corporation
# Experimental: as §1
# [6] = target: T6, AMPK(A2/B2/G3) (Homo sapiens, UniProt P54646); assay: HotSpot kinase assay; type: biochemical; conditions: 10µM; read-out: % Enzyme Activity (relative to DMSO controls)
# T6 construct: purchased Reaction Biology Corporation
# Experimental: as §1
# [7] = target: T7, CK2a (Homo sapiens, UniProt P68400); assay: HotSpot kinase assay; type: biochemical; conditions: 10µM; read-out: % Enzyme Activity (relative to DMSO controls)
# T7 construct: purchased Reaction Biology Corporation
# T7 sequence (P68400 whole entry): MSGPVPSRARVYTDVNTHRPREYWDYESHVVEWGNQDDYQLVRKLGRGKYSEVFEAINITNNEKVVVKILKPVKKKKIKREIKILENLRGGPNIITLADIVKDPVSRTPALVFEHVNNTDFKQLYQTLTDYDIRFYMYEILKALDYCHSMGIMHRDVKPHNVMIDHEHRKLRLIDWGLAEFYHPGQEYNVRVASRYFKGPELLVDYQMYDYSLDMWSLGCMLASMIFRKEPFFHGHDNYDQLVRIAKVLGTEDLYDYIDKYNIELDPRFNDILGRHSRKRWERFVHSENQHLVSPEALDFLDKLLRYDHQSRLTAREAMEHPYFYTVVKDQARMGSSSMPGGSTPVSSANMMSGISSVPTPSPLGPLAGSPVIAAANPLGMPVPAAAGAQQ
# Experimental: as §1
# [8] = target: T8, COT1/MAP3K8 (Homo sapiens, UniProt P41279); assay: HotSpot kinase assay; type: biochemical; conditions: 10µM; read-out: % Enzyme Activity (relative to DMSO controls)
# T8 construct: purchased Reaction Biology Corporation
# Experimental: as §1
# [9] = target: T9, DYRK4 (Homo sapiens, UniProt Q9NR20); assay: HotSpot kinase assay; type: biochemical; conditions: 10µM; read-out: % Enzyme Activity (relative to DMSO controls)
# T9 construct: purchased Reaction Biology Corporation
# Experimental: as §1
# [10] = target: T10, ERK1 (Homo sapiens, UniProt P27361); assay: HotSpot kinase assay; type: biochemical; conditions: 10µM; read-out: % Enzyme Activity (relative to DMSO controls)
# T10 construct: purchased Reaction Biology Corporation
# Experimental: as §1
# [11] = target: T11, HIPK1 (Homo sapiens, UniProt Q86Z02); assay: HotSpot kinase assay; type: biochemical; conditions: 10µM; read-out: % Enzyme Activity (relative to DMSO controls)
# T11 construct: purchased Reaction Biology Corporation
# Experimental: as §1
# [12] = target: T12, HPK1/MAP4K1 (Homo sapiens, UniProt Q92918); assay: HotSpot kinase assay; type: biochemical; conditions: 10µM; read-out: % Enzyme Activity (relative to DMSO controls)
# T12 construct: purchased Reaction Biology Corporation
# Experimental: as §1
# [13] = target: T13, NEK3 (Homo sapiens, UniProt P51956); assay: HotSpot kinase assay; type: biochemical; conditions: 10µM; read-out: % Enzyme Activity (relative to DMSO controls)
# T13 construct: purchased Reaction Biology Corporation
# Experimental: as §1
# [14] = target: T14, NEK6 (Homo sapiens, UniProt Q9HC98); assay: HotSpot kinase assay; type: biochemical; conditions: 10µM; read-out: % Enzyme Activity (relative to DMSO controls)
# T14 construct: purchased Reaction Biology Corporation
# Experimental: as §1
# [15] = target: T15, PDK3/PDHK3 (Homo sapiens, UniProt Q15120); assay: HotSpot kinase assay; type: biochemical; conditions: 10µM; read-out: % Enzyme Activity (relative to DMSO controls)
# T15 construct: purchased Reaction Biology Corporation
# Experimental: as §1
# [16] = target: T16, PDK4/PDHK4 (Homo sapiens, UniProt Q16654); assay: HotSpot kinase assay; type: biochemical; conditions: 10µM; read-out: % Enzyme Activity (relative to DMSO controls)
# T16 construct: purchased Reaction Biology Corporation
# T16 sequence (Q16654 whole entry): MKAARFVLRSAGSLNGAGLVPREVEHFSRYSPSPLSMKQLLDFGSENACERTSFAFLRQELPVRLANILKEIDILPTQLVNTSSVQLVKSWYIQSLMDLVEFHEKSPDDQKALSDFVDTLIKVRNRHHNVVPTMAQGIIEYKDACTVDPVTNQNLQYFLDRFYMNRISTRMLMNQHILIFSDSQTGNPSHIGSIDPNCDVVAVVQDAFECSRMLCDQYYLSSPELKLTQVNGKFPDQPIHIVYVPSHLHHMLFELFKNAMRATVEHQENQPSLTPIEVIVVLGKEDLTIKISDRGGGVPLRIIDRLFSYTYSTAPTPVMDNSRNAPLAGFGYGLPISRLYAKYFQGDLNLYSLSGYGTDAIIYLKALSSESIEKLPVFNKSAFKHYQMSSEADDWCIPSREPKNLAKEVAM
# Experimental: as §1
# [17] = target: T17, TRPM7/CHAK1 (Homo sapiens, UniProt Q96QT4); assay: HotSpot kinase assay; type: biochemical; conditions: 10µM; read-out: % Enzyme Activity (relative to DMSO controls)
# T17 construct: purchased Reaction Biology Corporation
# Experimental: as §1
# [18] = target: T18, VRK1 (Homo sapiens, UniProt Q99986); assay: HotSpot kinase assay; type: biochemical; conditions: 10µM; read-out: % Enzyme Activity (relative to DMSO controls)
# T18 construct: purchased Reaction Biology Corporation
# Experimental: as §1
# [19] = target: T19, VRK2 (Homo sapiens, UniProt Q86Y07); assay: HotSpot kinase assay; type: biochemical; conditions: 10µM; read-out: % Enzyme Activity (relative to DMSO controls)
# T19 construct: purchased Reaction Biology Corporation
# Experimental: as §1
# [20] = target: T20, WNK3 (Homo sapiens, UniProt Q9BYP7); assay: HotSpot kinase assay; type: biochemical; conditions: 10µM; read-out: % Enzyme Activity (relative to DMSO controls)
# T20 construct: purchased Reaction Biology Corporation
# T20 sequence (Q9BYP7 whole entry): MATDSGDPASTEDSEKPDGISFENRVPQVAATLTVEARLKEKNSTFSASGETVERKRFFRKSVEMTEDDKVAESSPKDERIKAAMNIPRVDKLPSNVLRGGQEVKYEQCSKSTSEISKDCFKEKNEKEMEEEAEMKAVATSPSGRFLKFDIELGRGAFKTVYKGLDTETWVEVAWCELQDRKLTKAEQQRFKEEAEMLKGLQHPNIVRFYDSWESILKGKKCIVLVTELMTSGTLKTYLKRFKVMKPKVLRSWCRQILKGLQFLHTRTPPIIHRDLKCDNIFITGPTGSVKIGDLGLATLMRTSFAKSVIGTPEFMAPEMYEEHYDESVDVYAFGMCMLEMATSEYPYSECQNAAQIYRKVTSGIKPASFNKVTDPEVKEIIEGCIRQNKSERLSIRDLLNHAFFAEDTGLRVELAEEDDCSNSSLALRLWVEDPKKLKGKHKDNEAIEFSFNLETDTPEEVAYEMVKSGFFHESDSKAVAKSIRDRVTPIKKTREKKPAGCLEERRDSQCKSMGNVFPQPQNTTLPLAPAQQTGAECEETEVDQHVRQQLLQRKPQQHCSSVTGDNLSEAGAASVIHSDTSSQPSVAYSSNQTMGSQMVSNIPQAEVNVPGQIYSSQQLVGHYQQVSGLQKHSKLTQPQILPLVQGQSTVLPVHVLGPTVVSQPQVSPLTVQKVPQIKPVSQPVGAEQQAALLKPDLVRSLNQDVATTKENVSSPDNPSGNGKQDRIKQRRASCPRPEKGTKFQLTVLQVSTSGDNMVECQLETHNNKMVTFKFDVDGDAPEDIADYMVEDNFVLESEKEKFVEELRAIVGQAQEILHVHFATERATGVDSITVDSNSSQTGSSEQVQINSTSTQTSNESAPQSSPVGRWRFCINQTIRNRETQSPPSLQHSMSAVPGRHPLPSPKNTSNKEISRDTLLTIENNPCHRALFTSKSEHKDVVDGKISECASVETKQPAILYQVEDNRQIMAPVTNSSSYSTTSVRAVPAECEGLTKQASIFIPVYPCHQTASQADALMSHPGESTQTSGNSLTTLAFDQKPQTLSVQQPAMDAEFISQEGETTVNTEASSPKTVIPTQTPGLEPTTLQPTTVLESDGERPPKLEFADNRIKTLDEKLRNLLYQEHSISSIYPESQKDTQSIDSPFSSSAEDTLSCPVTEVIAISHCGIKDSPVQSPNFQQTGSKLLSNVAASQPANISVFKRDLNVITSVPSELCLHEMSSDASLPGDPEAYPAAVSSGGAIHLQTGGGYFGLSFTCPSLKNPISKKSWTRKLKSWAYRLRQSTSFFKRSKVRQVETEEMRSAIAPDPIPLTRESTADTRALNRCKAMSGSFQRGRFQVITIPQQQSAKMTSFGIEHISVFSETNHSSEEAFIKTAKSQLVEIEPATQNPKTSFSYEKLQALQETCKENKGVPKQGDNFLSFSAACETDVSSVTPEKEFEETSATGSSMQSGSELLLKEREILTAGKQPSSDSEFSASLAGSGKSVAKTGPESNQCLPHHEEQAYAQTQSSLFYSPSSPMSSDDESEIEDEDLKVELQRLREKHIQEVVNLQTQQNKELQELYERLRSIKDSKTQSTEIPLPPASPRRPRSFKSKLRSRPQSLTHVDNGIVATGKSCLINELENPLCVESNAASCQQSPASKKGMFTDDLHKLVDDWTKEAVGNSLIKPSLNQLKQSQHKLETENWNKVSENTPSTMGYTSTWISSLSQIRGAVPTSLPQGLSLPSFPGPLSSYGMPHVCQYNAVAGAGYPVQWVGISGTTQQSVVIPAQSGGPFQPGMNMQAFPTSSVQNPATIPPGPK
# Experimental: as §1
# [21] = target: T21, ZAK/MLTK (Homo sapiens, UniProt Q9NYL2); assay: HotSpot kinase assay; type: biochemical; conditions: 10µM; read-out: % Enzyme Activity (relative to DMSO controls)
# T21 construct: purchased Reaction Biology Corporation
# Experimental: as §1
# [22] = target: T22, DCAMKL1 (Homo sapiens, UniProt O15075); assay: HotSpot kinase assay; type: biochemical; conditions: read-out: % Enzyme Activity (relative to DMSO controls)
# T22 construct: purchased Reaction Biology Corporation
# [23] = target: T23, DCAMKL2 (Homo sapiens, UniProt Q8N568); assay: HotSpot kinase assay; type: biochemical; conditions: read-out: % Enzyme Activity (relative to DMSO controls)
# T23 construct: purchased Reaction Biology Corporation
# [24] = target: T24, ERBB4/HER4 (Homo sapiens, UniProt Q15303); assay: HotSpot kinase assay; type: biochemical; conditions: read-out: % Enzyme Activity (relative to DMSO controls)
# T24 construct: purchased Reaction Biology Corporation
# T24 sequence (Q15303 26-1308): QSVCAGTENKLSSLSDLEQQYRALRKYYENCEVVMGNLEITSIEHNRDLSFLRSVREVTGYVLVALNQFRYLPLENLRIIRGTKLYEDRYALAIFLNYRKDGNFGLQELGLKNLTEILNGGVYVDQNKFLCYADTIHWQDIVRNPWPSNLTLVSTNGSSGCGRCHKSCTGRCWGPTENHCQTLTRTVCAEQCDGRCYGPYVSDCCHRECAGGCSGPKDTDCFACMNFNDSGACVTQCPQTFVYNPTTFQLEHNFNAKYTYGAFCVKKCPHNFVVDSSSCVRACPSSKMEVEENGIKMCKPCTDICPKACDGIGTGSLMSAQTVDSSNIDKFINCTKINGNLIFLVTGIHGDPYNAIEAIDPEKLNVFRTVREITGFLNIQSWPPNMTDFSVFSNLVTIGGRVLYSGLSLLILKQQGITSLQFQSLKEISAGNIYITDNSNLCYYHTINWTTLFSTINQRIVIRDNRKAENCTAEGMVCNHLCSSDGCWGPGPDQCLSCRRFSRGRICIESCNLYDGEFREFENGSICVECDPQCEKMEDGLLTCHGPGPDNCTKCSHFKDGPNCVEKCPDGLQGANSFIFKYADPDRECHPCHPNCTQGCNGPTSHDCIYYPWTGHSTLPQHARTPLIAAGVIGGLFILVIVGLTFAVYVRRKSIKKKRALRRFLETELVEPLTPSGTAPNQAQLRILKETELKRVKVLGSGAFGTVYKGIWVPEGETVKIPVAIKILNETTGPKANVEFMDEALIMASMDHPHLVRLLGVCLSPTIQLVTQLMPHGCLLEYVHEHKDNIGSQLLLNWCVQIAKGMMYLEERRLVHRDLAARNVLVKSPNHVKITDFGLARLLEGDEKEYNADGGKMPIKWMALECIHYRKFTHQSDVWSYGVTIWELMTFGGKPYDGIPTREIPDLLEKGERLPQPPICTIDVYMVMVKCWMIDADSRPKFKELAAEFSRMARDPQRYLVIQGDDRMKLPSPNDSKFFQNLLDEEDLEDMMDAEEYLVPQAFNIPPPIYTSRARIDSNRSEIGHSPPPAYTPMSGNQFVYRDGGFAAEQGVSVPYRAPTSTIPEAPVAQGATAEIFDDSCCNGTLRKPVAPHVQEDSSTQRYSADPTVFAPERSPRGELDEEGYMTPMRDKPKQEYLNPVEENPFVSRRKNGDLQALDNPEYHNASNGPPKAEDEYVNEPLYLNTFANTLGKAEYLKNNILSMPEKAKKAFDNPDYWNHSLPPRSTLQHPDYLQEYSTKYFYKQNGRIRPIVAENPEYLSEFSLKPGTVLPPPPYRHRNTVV
# [25] = target: T25, ERK2/MAPK1 (Homo sapiens, UniProt P28482); assay: HotSpot kinase assay; type: biochemical; conditions: read-out: % Enzyme Activity (relative to DMSO controls)
# T25 construct: purchased Reaction Biology Corporation
# [26] = target: T26, GRK1 (Homo sapiens, UniProt Q15835); assay: HotSpot kinase assay; type: biochemical; conditions: read-out: % Enzyme Activity (relative to DMSO controls)
# T26 construct: purchased Reaction Biology Corporation
# [27] = target: T27, GRK7 (Homo sapiens, UniProt Q8WTQ7); assay: HotSpot kinase assay; type: biochemical; conditions: read-out: % Enzyme Activity (relative to DMSO controls)
# T27 construct: purchased Reaction Biology Corporation
# [28] = target: T28, LATS1 (Homo sapiens, UniProt O95835); assay: HotSpot kinase assay; type: biochemical; conditions: read-out: % Enzyme Activity (relative to DMSO controls)
# T28 construct: purchased Reaction Biology Corporation
# T28 sequence (O95835 whole entry): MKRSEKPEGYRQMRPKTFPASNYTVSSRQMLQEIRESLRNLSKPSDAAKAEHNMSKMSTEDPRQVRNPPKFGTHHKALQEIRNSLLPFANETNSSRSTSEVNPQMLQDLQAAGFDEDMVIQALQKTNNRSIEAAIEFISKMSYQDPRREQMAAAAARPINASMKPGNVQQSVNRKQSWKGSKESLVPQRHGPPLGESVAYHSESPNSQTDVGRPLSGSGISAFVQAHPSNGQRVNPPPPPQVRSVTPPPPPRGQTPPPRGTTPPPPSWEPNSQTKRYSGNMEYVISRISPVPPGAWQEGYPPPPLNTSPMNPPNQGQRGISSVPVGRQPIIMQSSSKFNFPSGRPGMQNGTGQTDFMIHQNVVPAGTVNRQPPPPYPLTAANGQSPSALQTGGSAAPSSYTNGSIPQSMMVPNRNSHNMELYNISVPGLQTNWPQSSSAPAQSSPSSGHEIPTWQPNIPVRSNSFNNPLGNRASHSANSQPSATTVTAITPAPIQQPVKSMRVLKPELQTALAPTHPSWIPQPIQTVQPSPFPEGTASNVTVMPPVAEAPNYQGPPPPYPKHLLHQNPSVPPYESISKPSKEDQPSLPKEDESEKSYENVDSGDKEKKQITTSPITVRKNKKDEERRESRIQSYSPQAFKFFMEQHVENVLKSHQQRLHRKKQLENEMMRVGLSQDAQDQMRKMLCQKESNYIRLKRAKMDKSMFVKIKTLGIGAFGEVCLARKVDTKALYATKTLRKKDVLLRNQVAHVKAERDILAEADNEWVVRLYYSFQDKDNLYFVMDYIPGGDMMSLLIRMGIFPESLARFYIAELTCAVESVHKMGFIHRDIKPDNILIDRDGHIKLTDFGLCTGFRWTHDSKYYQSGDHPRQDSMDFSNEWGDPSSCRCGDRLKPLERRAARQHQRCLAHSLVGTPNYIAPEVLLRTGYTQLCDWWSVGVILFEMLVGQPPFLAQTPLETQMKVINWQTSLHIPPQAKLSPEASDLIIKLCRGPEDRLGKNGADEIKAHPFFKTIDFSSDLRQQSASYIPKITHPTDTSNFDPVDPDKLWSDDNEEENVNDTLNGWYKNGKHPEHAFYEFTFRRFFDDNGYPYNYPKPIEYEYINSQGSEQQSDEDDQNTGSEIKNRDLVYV
# [29] = target: T29, MAPKAPK2 (Homo sapiens, UniProt P49137); assay: HotSpot kinase assay; type: biochemical; conditions: read-out: % Enzyme Activity (relative to DMSO controls)
# T29 construct: purchased Reaction Biology Corporation
# [30] = target: T30, MAPKAPK5/PRAK (Homo sapiens, UniProt Q8IW41); assay: HotSpot kinase assay; type: biochemical; conditions: read-out: % Enzyme Activity (relative to DMSO controls)
# T30 construct: purchased Reaction Biology Corporation
# [31] = target: T31, MYO3A (Homo sapiens, UniProt Q8NEV4); assay: HotSpot kinase assay; type: biochemical; conditions: read-out: % Enzyme Activity (relative to DMSO controls)
# T31 construct: purchased Reaction Biology Corporation
# [32] = target: T32, PDK1/PDPK1 (Homo sapiens, UniProt O15530); assay: biochemical
# T32 construct: purchased Reaction Biology Corporation
# T32 sequence (O15530 1-556): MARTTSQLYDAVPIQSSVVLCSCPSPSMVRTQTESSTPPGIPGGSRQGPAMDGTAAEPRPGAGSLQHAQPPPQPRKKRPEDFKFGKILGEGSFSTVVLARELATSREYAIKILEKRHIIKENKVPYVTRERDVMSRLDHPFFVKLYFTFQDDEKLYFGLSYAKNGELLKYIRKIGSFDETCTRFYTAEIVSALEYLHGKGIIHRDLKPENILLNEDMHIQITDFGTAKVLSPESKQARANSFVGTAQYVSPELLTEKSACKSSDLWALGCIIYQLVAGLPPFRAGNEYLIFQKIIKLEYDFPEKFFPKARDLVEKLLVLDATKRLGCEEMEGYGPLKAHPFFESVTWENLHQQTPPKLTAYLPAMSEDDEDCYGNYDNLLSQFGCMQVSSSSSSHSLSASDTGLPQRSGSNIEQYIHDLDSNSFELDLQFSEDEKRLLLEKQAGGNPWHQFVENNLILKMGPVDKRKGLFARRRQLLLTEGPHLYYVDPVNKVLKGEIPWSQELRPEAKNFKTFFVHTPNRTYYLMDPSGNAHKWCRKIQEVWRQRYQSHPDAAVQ
# [33] = target: T33, RIPK5 (Homo sapiens, UniProt Q6XUX3); assay: HotSpot kinase assay; type: biochemical; conditions: read-out: % Enzyme Activity (relative to DMSO controls)
# T33 construct: purchased Reaction Biology Corporation
# [34] = target: T34, SRPK2 (Homo sapiens, UniProt P78362); assay: HotSpot kinase assay; type: biochemical; conditions: read-out: % Enzyme Activity (relative to DMSO controls)
# T34 construct: purchased Reaction Biology Corporation
smiles,measurement,setting,value
CO[C@@H]1[C@H](N(C)C(=O)CCC(=O)NCc2cn(CCCS(=O)(=O)O)nn2)C[C@H]2O[C@]1(C)n1c3ccccc3c3c4c(c5c6ccccc6n2c5c31)C(=O)NC4 [CIMSS],remaining activity at 10 µM,[1],1.13%
same,remaining activity at 10 µM,[2],0.67%
same,remaining activity at 10 µM,[3],1.46%
same,remaining activity at 10 µM,[4],0.73%
same,remaining activity at 10 µM,[5],0.73%
same,remaining activity at 10 µM,[6],0.63%
same,remaining activity at 10 µM,[7],71.4%
same,remaining activity at 10 µM,[8],110%
same,remaining activity at 10 µM,[9],92%
same,remaining activity at 10 µM,[10],91.8%
same,remaining activity at 10 µM,[11],36.4%
same,remaining activity at 10 µM,[12],2.66%
same,remaining activity at 10 µM,[13],87.3%
same,remaining activity at 10 µM,[14],89%
same,remaining activity at 10 µM,[15],96.4%
same,remaining activity at 10 µM,[16],93.2%
same,remaining activity at 10 µM,[17],91.6%
same,remaining activity at 10 µM,[18],81.6%
same,remaining activity at 10 µM,[19],81.8%
same,remaining activity at 10 µM,[20],66.4%
same,remaining activity at 10 µM,[21],82.7%
same,remaining activity at 10 µM,[22],83.7%
same,remaining activity at 10 µM,[23],87.7%
same,remaining activity at 10 µM,[24],25%
same,remaining activity at 10 µM,[25],75.3%
same,remaining activity at 10 µM,[26],4.7%
same,remaining activity at 10 µM,[27],7.19%
same,remaining activity at 10 µM,[28],9.89%
same,remaining activity at 10 µM,[29],69.9%
same,remaining activity at 10 µM,[30],85.2%
same,remaining activity at 10 µM,[31],6.46%
same,IC50,"[32]; Supplementary Table 1, PDPK1, read-out: IC50 (Molar concentration)",0.278 nM
same,remaining activity at 10 µM,"[32]; read-out: % Enzyme Activity (relative to DMSO controls), 10µM",4.24%
same,inhibition at 10 µM,[32]; read-out: inhibition of PDPK1,> 75%
same,remaining activity at 10 µM,[33],22.7%
same,remaining activity at 10 µM,[34],8.02%
